Key:
mouse intersectin 2 gene = assay: Intersectin 2 gene expression in ear tissue of DNFB-coated mouse allergic reaction model (TaqMan, ABI 7700); format: in vivo; conditions: mouse ear tissue mRNA, day 6, corrected with 18S gene, value of CONT. taken as 1; four mice each; prednisolone oral day 0 to day 6
Description: Using a 2,4-dinitrofluorobenzene (DNFB) coated mouse as a model for an allergic reaction, changes in the expression level of the intersectin 2 gene in the mouse were observed. DNFB is a substance that is used as a hapten to cause allergic dermatitis reaction in a laboratory animal such as a mouse.
Day 0: The abdominal region was shaved by an electric clipper and 25 μL of the sensitizing solution was applied to the abdominal region.
Day 1: In a similar manner to the previous day, 25 μL of the sensitizing solution was applied to the abdominal region.
Day 5: 5 μL/ear of challenge solution was applied to both ears. […]
The expression level of the intersectin 2 gene was quantified by the TaqMan method (as mentioned above) using ABI 7700 and using mRNA sample extracted from the mouse ear tissue. […]
PCR was carried out using 25 μL of 2× Master Mix without UNG, 1.25 μL of 40×MultiScribe and RNase Inhibitor Mix, 0.25 μL of 10 μM primer, and 0.625 μL of 4 μM TaqMan Probe derived from One-step RT-PCR Master Mix Reagents (PE Biosystems), and RNA (2 ng)+DEPC resulting in total volume of 50 μL. […] To correct the differences of cDNA concentration among the samples, a similar quantitative analysis was performed on the 18S gene, and the value for the gene of interest was divided by the value for 18S, and indicated as taking the value of CONT. as 1. […]

[1] = system: "1835-17" (intersectin 2 gene); assay: Change in gene expression in human peripheral blood eosinophils due to stimulation by cytokines (TaqMan, ABI 7700); format: cell-based; conditions: eosinophils of a healthy subject, cytokine 0.1, 1 and 10 ng/ml, 3 hours culture, GAPDH corrected, FIG. 4
Description: The change in gene expression due to cytokine stimulation in eosinophils isolated from 100 ml of peripheral blood from a healthy subject was studied. Isolation of eosinophils was carried out as described above. Eosinophils were plated onto a 24-well plate (1×10^6 cells/mL). The plate was pre-coated with 1% BSA (immobilizing blocking buffer) at room temperature for 2 hours in order to prevent activation due to adhesion of eosinophils. As cytokines, 0.1, 1, and 10 ng/ml each of interleukin 5 (IL-5), interleukin 4 (IL-4), interferon γ (IFNγ), granulocyte macrophage colony stimulating factor (GM-CSF), and eotaxin were added to each well, and this was cultured for 3 hours in DMEM supplemented with 10% FCS. All of these cytokines are those considered to be related to activation of eosinophils and onset of allergies.
RNAs were prepared in the same manner as in Example 1 for each of the treated eosinophils, and were subjected to gene expression analysis. The primers, probes, and such used were the same as described above. The result at 3 hours after starting the culture is shown in FIG. 4 (value was corrected with GAPDH for the number of copies per 1 ng of RNA).

Molecule | relative expression level of intersectin 2 gene (Average) (mouse intersectin 2 gene) | expression of "1835-17" (intersectin 2 gene) [1]
O=[N+]([O-])c1ccc(F)c([N+](=O)[O-])c1 [DNFB, 2,4-dinitrofluorobenzene] | 2.04 | 
IL-5: cytokine interleukin 5 |  | increases
C[C@]12C=CC(=O)C=C1CC[C@@H]1[C@@H]2[C@@H](O)C[C@@]2(C)[C@H]1CC[C@]2(O)C(=O)CO [S, prednisolone] | 1.04 | 
IFNγ: cytokine interferon γ (protein, UniProt P01579 24-161, looked up) Interferon gamma: QDPYVKEAENLKKYFNAGHSDVADNGTLFLGILKNWKEESDRKIMQSQIVSFYFKLFKNFKDDQSIQKSVETIKEDMNVKFFNSNKKKRDDFEKLTNYSVTDLNVQRKAIHELIQVMAELSPAAKTGKRKRSQMLFRG |  | induced
IL-4: cytokine interleukin 4 (protein, UniProt P05112 25-153, looked up) Interleukin-4: HKCDITLQEIIKTLNSLTEQKTLCTELTVTDIFAASKNTTEKETFCRAATVLRQFYSHHEKDTRCLGATAQQFHRHKQLIRFLKRLDRNLWGLAGLNSCPVKEANQSTLENFLERLKTIMREKYSKCSS |  | induced

Reference: patent US20040053282A1, “Method of examining allergic disease” (priority 2000, published 2004)
